Reference: patent US20040235874A1, “Fungicidal composition comprising pyrimethanil and iprodione” (priority 2001, published 2004)

How the values were obtained:
Assay type in all cases: in vivo
Ascochyta pisi = test: Control of Ascochyta pisi on protein-rich peas; conditions: pea Baccara, 23 days after second application
Source text: This example illustrates the efficacy of a composition according to the invention which comprises pyrimethanil and iprodione as active ingredients for controlling Ascochyta pisi on protein-rich peas. The following fungicidal compounds are compared: […] pyrimethanil at the dose of 600 g/ha, […] Two successive […] carried out on pea plants (Baccara variety) at the flowering stages and then two weeks after the first application. 23 days after the second application, the percentage of diseased leaves and pods is calculated; the results are presented in table 5.

Alternaria porri = test: Control of Alternaria porri on onion, yield at harvest; conditions: for Yield (kg/ha): onion bulbs, harvest 32 days after last of 5 applications; for Yield gain (%): onion, compared with the untreated control
Protocol: This example illustrates the efficacy of a composition according to the invention which comprises pyrimethanil and iprodione as active ingredients for controlling Alternaria porri on onion.
The following fungicidal compounds are compared:
iprodione at the dose of 750 g/ha,
pyrimethanil at the dose of 600 g/ha,
iprodione+pyrimethanil at the doses of 300+150 g/ha to be applied in a mixture volume of 1 000 l/ha.
A total of 5 successive preventive sprayings are carried out on onion plants which were initially 31 days old and at a rhythm of 13 days.
32 days after the last application, harvesting is carried out and the yield is calculated in terms of kg of bulbs/ha and the yield gain expressed by comparing with the untreated control.

Sclerotinia sclerotinium = test: Control of Sclerotinia on lettuce, counting of attacked plants; conditions: lettuce Manita
Protocol: This sample illustrates the efficacy of a composition according to the invention which comprises pyrimethanil and iprodione as active ingredients for controlling Sclerotinia sclerotinium on lettuce. The following fungicidal compounds are compared: iprodione at the dose of 750 g/ha, pyrimethanil at the dose of 800 g/ha, […] A total of 5 […] carried out on lettuce plants ([…] variety). An inoculation with Sclerotinia is carried out the next day after the first treatment by spreading contaminated rape plant stems on the soil. 11 countings of the lettuce plants attacked by Schlerotinia are carried out throughout the trial.

Alternaria dauci = test: Field control of Alternaria dauci on carrot; conditions: carrot Nantes
Source text: This example illustrates the efficacy of a composition according to the invention which comprises pyrimethanil and iprodione as active ingredients for controlling alternaria dauci on carrot. The following fungicidal compounds are compared: iprodione at the dose of 750 g/ha, pyrimethanil at the dose of 600 g/ha, […] The products are applied to carrot (Nantes variety) which is sensitive to Alternaria dauci. The various products to be studied are sprayed at the rate of 3 applications in total with intervals of 8 days between the 1st and 2nd applications and of 10 days between the 2nd and 3rd application. Scores for the disease (percentage of foliar surface area destroyed) are awarded 7 days after the 1st and 2nd applications and then 3 days and 8 days after the 3rd application.

Alternaria solani = test: Field control of Alternaria solani on potato; conditions: potato Bintje
Source text: This example illustrates the efficacy of a composition according to the invention which comprises pyrimethanil and iprodione as active ingredients for controlling Alternaria solani on the potato. […] The following fungicidal compounds are compared: iprodione at the dose of 750 g/ha, pyrimethanil at the dose of 600 g/ha, […] The products are applied to potato (Bintje variety) which is sensitive to Alternaria solani. […] mancozeb—product tested—mancozeb—product tested—mancozeb—product tested. Scores for the disease (percentage of foliar surface area destroyed) are awarded 15 days after the second application of the experiment products (15 DAB), 8 days and 17 days after the third application of the experimental products (8 DAC and 17 DAC).

## CC(C)NC(=O)N1CC(=O)N(c2cc(Cl)cc(Cl)c2)C1=O [iprodione]
Ascochyta pisi; 500 g/ha, first column
  Amount of diseased leaves (%): 46%
Ascochyta pisi; 500 g/ha, second column
  Amount of diseased leaves (%): 34%
Alternaria porri; 750 g/ha
  Yield (kg/ha): 33 000 kg/ha
  Yield gain (%): 16.8%
Sclerotinia sclerotinium; 750 g/ha, counting 1
  Counting of the lettuce plants attacked by Sclerotinia: 1
Sclerotinia sclerotinium; 750 g/ha, counting 2
  Counting of the lettuce plants attacked by Sclerotinia: 2.5
Sclerotinia sclerotinium; 750 g/ha, counting 3
  Counting of the lettuce plants attacked by Sclerotinia: 3
Sclerotinia sclerotinium; 750 g/ha, counting 4
  Counting of the lettuce plants attacked by Sclerotinia: 4
Sclerotinia sclerotinium; 750 g/ha, counting 5
  Counting of the lettuce plants attacked by Sclerotinia: 4
Sclerotinia sclerotinium; 750 g/ha, counting 6
  Counting of the lettuce plants attacked by Sclerotinia: 4.8
Sclerotinia sclerotinium; 750 g/ha, counting 7
  Counting of the lettuce plants attacked by Sclerotinia: 5.5
Sclerotinia sclerotinium; 750 g/ha, counting 8
  Counting of the lettuce plants attacked by Sclerotinia: 5.9
Sclerotinia sclerotinium; 750 g/ha, counting 9
  Counting of the lettuce plants attacked by Sclerotinia: 6.7
Sclerotinia sclerotinium; 750 g/ha, counting 10
  Counting of the lettuce plants attacked by Sclerotinia: 7.4
Sclerotinia sclerotinium; 750 g/ha, counting 11
  Counting of the lettuce plants attacked by Sclerotinia: 7.9
Alternaria dauci; 750 g/ha, 3 DAC
  Score for the disease (percentage of foliar surface area destroyed): 19.4%
Alternaria dauci; 750 g/ha, 7 DAA
  Score for the disease (percentage of foliar surface area destroyed): 8.7%
Alternaria dauci; 750 g/ha, 7 DAB
  Score for the disease (percentage of foliar surface area destroyed): 11.9%
Alternaria dauci; 750 g/ha, 8 DAC
  Score for the disease (percentage of foliar surface area destroyed): 35%
Alternaria solani; 750 g/ha, 8 DAC
  Score for the disease (percentage of foliar surface area destroyed): 4.38%
Alternaria solani; 750 g/ha, 15 DAB
  Score for the disease (percentage of foliar surface area destroyed): 1.75%
Alternaria solani; 750 g/ha, 17 DAC
  Score for the disease (percentage of foliar surface area destroyed): 10%

## Cc1cc(C)nc(Nc2ccccc2)n1 [pyrimethanil]
Ascochyta pisi; 600 g/ha, first column
  Amount of diseased leaves (%): 21%
Ascochyta pisi; 600 g/ha, second column
  Amount of diseased leaves (%): 16%
Alternaria porri; 600 g/ha
  Yield (kg/ha): 31 500 kg/ha
  Yield gain (%): 11.5%
Sclerotinia sclerotinium; 800 g/ha, counting 1
  Counting of the lettuce plants attacked by Sclerotinia: 3.5
Sclerotinia sclerotinium; 800 g/ha, counting 2
  Counting of the lettuce plants attacked by Sclerotinia: 5.5
Sclerotinia sclerotinium; 800 g/ha, counting 3
  Counting of the lettuce plants attacked by Sclerotinia: 8
Sclerotinia sclerotinium; 800 g/ha, counting 4
  Counting of the lettuce plants attacked by Sclerotinia: 14.8
Sclerotinia sclerotinium; 800 g/ha, counting 5
  Counting of the lettuce plants attacked by Sclerotinia: 18
Sclerotinia sclerotinium; 800 g/ha, counting 6
  Counting of the lettuce plants attacked by Sclerotinia: 22.8
Sclerotinia sclerotinium; 800 g/ha, counting 7
  Counting of the lettuce plants attacked by Sclerotinia: 26
Sclerotinia sclerotinium; 800 g/ha, counting 8
  Counting of the lettuce plants attacked by Sclerotinia: 29.4
Sclerotinia sclerotinium; 800 g/ha, counting 9
  Counting of the lettuce plants attacked by Sclerotinia: 31.4
Sclerotinia sclerotinium; 800 g/ha, counting 10
  Counting of the lettuce plants attacked by Sclerotinia: 33.9
Sclerotinia sclerotinium; 800 g/ha, counting 11
  Counting of the lettuce plants attacked by Sclerotinia: 35.8
Alternaria dauci; 600 g/ha, 3 DAC
  Score for the disease (percentage of foliar surface area destroyed): 31.2%
Alternaria dauci; 600 g/ha, 7 DAA
  Score for the disease (percentage of foliar surface area destroyed): 11.9%
Alternaria dauci; 600 g/ha, 7 DAB
  Score for the disease (percentage of foliar surface area destroyed): 21.9%
Alternaria dauci; 600 g/ha, 8 DAC
  Score for the disease (percentage of foliar surface area destroyed): 57.5%
Alternaria solani; 600 g/ha, 8 DAC
  Score for the disease (percentage of foliar surface area destroyed): 8.75%
Alternaria solani; 600 g/ha, 15 DAB
  Score for the disease (percentage of foliar surface area destroyed): 3.44%
Alternaria solani; 600 g/ha, 17 DAC
  Score for the disease (percentage of foliar surface area destroyed): 13.13%
